From patent publication US4324728A, “Compound nanaomycin A and derivatives thereof and a process for producing the same” (The Kitasato Institute, priority 1976, dated 1982)
≈ marks a conversion by molar mass, not a printed value.

Assays:
Trichophyton violaceum = test: Minimal inhibitory concentration (agar); type: cell-based; settings: Trichophyton violaceum, 96 h, pH 6.4, potato agar, pH 6.4, 4 days, 27° C.; read-out: MIC
[1] = tested on: parasite of the genus Tricophyton; test: Therapeutic effect on infectious diseases in guinea pigs and cattle; type: in vivo; settings: concentration 0.01-1%
Protocol: When dermatomycosis of cattle caused by mass infection of Trichophyton verrucosum is treated with nanaomycin A, nanaomycin A is dissolved or suspended in a suitable carrier, for example, olive oil, and is coated on the affected part directly with or without removal of the scales. […] The results obtained by once-coating of nanaomycin A and by twice-coating (the second coating is carried out a week after the first coating) are shown in Tables 2 and 3, respectively.

Acute toxicity in mice = settings: intra-penetrial injection
[2] = tested on: Staphylococcus aureus FDA 209P; test: Minimal inhibitory concentration (agar); type: cell-based; settings: FDA209P, 48 h, nutrient agar, pH 7.0, 2 days, 37° C.
[3] = tested on: Trichophyton mentagrophytes; test: Minimal inhibitory concentration (agar); type: cell-based; settings: 96 h, pH 6.4, potato agar, pH 6.4, 4 days, 27° C.
Solubility = type: physicochemical
Piricularia oryzae = test: microbe, parasite or virus in culture; type: cell-based; settings: 96 h, pH 6.4, potato agar, pH 6.4, 4 days, 27° C.
in vivo = settings: mouse, ip
Trichophyton verrucosum = test: Treatment of dermatomycosis of cattle; type: in vivo; design: key: +++: complete removal of scales and; ++: a little scales remained; +: removal of a part of scales; -: no removal of scale and no recovery
Protocol: When dermatomycosis of cattle caused by mass infection of Trichophyton verrucosum is treated with nanaomycin A, nanaomycin A is dissolved or suspended in a suitable carrier, for example, olive oil, and is coated on the affected part directly with or without removal of the scales. […] The results obtained by once-coating of nanaomycin A and by twice-coating (the second coating is carried out a week after the first coating) are shown in Tables 2 and 3, respectively. | I : direct coating on affected part | II : coating after removing the scales of affected | Con. : concentration of agent

[4] = tested on: Tricophyton metagorphytes; test: Treatment of dermatomycosis at the back of guinea pigs; type: in vivo; settings: 0.01-1% solution in propyleneglycol-ethanol (3:1 v/v), once daily for 8 days
Aspergillus fumigatus = test: Minimal inhibitory concentration (agar dilution method); type: cell-based; settings: Aspergillus fumigatus, 96 h; potato agar, pH 6.4, 27° C., 4 days; read-out: Minimal Inhibitory Con.
Protocol: (§1) Minimal inhibitory concentration was assayed by agar dilution method
(§2) (potato agar, pH 6.4, 27° C., 4 days).

Microsporum gypseum = test: as above; type: cell-based; settings: Nannizzia gypsea, 96 h; potato agar, pH 6.4, 27° C., 4 days; read-out: Minimal Inhibitory Con.
Protocol: as §1, §2

Mycoplasma gallisepticum [5] = test: Therapeutic effect on chronic respiratory disease of chickens; type: in vivo
Mycoplasma pneumoniae = test: Minimal inhibitory concentration (PPLO agar); type: cell-based; settings: 192 h, Eiken PPLO agar, pH 7.8, 8 days, 37° C.
Mycoplasma gallisepticum [6] = test: Growth inhibition (text summary of Table 1); type: cell-based; settings: Mycoplasmoides gallisepticum, 192 h; read-out: concentration at which growth is inhibited
Protocol: H Hokken PPLO agar (pH 7.8, 8 days, 37° C.)
E Eiken PPLO agar (pH 7.8, 8 days, 37° C.)

Aspergillus niger = test: Minimal inhibitory concentration (agar); type: cell-based; settings: Aspergillus niger, 96 h; potato agar, pH 6.4, 4 days, 27° C.; read-out: MIC
Protocol: as §1, §2
P potato agar (pH 6.4, 4 days, 27° C.)

mycoplasma = test: Antimycoplasma activity, paper disc method; type: cell-based
Protocol: Inhibitory zone is assayed by paper disc method (Eiken PPLO agar, pH 7.8,
Nanaomycin A and derivatives thereof according to the present invention are assayed in a similar manner to that designated as the paper disc method by Itoh, et al [J. of Antibiotics, 24, 855-859 (1971)], for example, as follows: […]

[7] = tested on: Xanthomonas oryzae N-5824; test: microbe, parasite or virus in culture; type: cell-based; settings: N5824, 48 h, pH 7
Staphylococcus aureus = test: Growth inhibition (text summary of Table 1); type: cell-based; settings: 48 h, read-out: concentration at which growth is inhibited
Protocol: Medium N nutrient agar (pH 7.0, 2 days, 37° C.)

[8] = once-coating, I direct coating, 0.1 mg/ml
[9] = once-coating, I direct coating, 1 mg/ml
[10] = once-coating, I direct coating, 10 mg/ml
[11] = once-coating, II after removing scales, 0.1 mg/ml
[12] = once-coating, II after removing scales, 1 mg/ml
[13] = once-coating, II after removing scales, 10 mg/ml
[14] = twice-coating, I direct coating, 0.1 mg/ml
[15] = twice-coating, I direct coating, 1 mg/ml
[16] = twice-coating, I direct coating, 10 mg/ml
[17] = twice-coating, II after removing scales, 0.1 mg/ml
[18] = twice-coating, II after removing scales, 1 mg/ml
[19] = twice-coating, II after removing scales, 10 mg/ml

## CC(=O)Oc1cccc2c1C(=O)C1=C(CC(CC(=O)O)OC1C)C2=O (centres unmarked) [Acetylnanaomycin A, acetylnanaomycin A]
Trichophyton violaceum
  MIC: 0.8 µg/mL (≈ 2.32 µM)
[1]
  therapeutic effect on Trichophyton infectious diseases: superior therapeutic effect to nanaomycin A
Acute toxicity in mice
  acute toxicity compared with nanaomycin A: lower than that of nanaomycin A
[2]
  MIC: 1.6 µg/mL (≈ 4.65 µM)
[3]
  MIC: 0.4 µg/mL (≈ 1.16 µM)
Solubility
  Solubility in ether: Soluble
  Solubility in methanol, ethanol, ethylacetate, chloroform and acetone: Soluble
  Solubility in n-hexane and petroleum ether: Insoluble
  Solubility in water: Insoluble
Piricularia oryzae
  MIC: 0.8 µg/mL (≈ 2.32 µM)
In vivo
  LD50: 38.5 mg/kg

## CC1OC(CC(=O)O)CC2=C1C(=O)c1c(O)cccc1C2=O (centres unmarked) [Nanaomycin A, nanaomycin A]
Trichophyton verrucosum; [8]
  Result after 1 week: ++
  Result after 2 weeks: ++
  Result after 3 weeks: +++
  Result after 4 weeks: +++
Trichophyton verrucosum; [9]
  Result after 1 week: +++
  Result after 2 weeks: +++
  Result after 3 weeks: +++
  Result after 4 weeks: +++
Trichophyton verrucosum; [10]
  Result after 1 week: +++
  Result after 2 weeks: +++
  Result after 3 weeks: +++
  Result after 4 weeks: +++
Trichophyton verrucosum; [11]
  Result after 1 week: +++
  Result after 2 weeks: +++
  Result after 3 weeks: +++
  Result after 4 weeks: +++
Trichophyton verrucosum; [12]
  Result after 1 week: +++
  Result after 2 weeks: +++
  Result after 3 weeks: +++
  Result after 4 weeks: +++
Trichophyton verrucosum; [13]
  Result after 1 week: +++
  Result after 2 weeks: +++
  Result after 3 weeks: +++
  Result after 4 weeks: +++
Trichophyton verrucosum; [14]
  Result after 1 week: ++
  Result after 2 weeks: +++
  Result after 3 weeks: +++
  Result after 4 weeks: +++
Trichophyton verrucosum; [15]
  Result after 1 week: ++
  Result after 2 weeks: ++
  Result after 3 weeks: +++
  Result after 4 weeks: +++
Trichophyton verrucosum; [16]
  Result after 1 week: +++
  Result after 2 weeks: +++
  Result after 3 weeks: +++
  Result after 4 weeks: +++
Trichophyton verrucosum; [17]
  Result after 1 week: +++
  Result after 2 weeks: +++
  Result after 3 weeks: +++
  Result after 4 weeks: +++
Trichophyton verrucosum; [18]
  Result after 1 week: +++
  Result after 2 weeks: +++
  Result after 3 weeks: +++
  Result after 4 weeks: +++
Trichophyton verrucosum; [19]
  Result after 1 week: +++
  Result after 2 weeks: +++
  Result after 3 weeks: +++
  Result after 4 weeks: +++
[4]
  therapeutic effect on erythema and scales: excellent therapeutic effect
Aspergillus fumigatus
  MIC: 6.3 µg/mL (≈ 20.8 µM)
Microsporum gypseum
  MIC: 0.8 µg/mL (≈ 2.65 µM)
Mycoplasma gallisepticum [5]
  therapeutic effect on chronic respiratory disease: exhibits therapeutic effect
Mycoplasma pneumoniae
  MIC: 0.013 µg/mL (≈ 0.043 µM)
Mycoplasma gallisepticum [6]
  MIC: ≤ 0.1 µg/mL
[2]
  MIC: 3.9 µg/mL (≈ 12.9 µM)
Aspergillus niger
  MIC: 25 µg/mL (≈ 82.7 µM)
mycoplasma; Mycoplasma, 24 h, 10 μg/ml, Eiken PPLO agar, pH 7.8, 37° C., 1 day, read-out: Inhibitory Zone
  zone of inhibition at 10 µg/mL: 20.4 mm
mycoplasma; Mycoplasma, 24 h, 100 μg/ml, Eiken PPLO agar, pH 7.8, 37° C., 1 day, read-out: Inhibitory Zone
  zone of inhibition at 100 µg/mL: 28.7 mm
mycoplasma; paper disc, Table 5
  antimycoplasma activity compared with deoxyfrenolicin and ethylkalafunginate: superior to those of deoxyfrenolicin and ethylkalafunginate
Solubility
  Solubility in ether: Easily soluble
  Solubility in methanol, ethanol, ethylacetate, chloroform and acetone: Easily soluble
  Solubility in n-hexane and petroleum ether: Insoluble
  Solubility in water: Insoluble
In vivo
  LD50: 28.2 mg/kg
[7]
  MIC: 62.5 µg/mL (≈ 207 µM)
Staphylococcus aureus
  MIC: 2 to 8 µg/mL (≈ 6.62 to 26.5 µM)
